The record followed here is patent publication EP2303911B1, “A SYNTHETIC PEPTIDE CONSISTING OF BONE FORMING PEPTIDE 2(BFP 2) FOR STIMULATING OSTEOBLAST DIFFERENTIATION, AND PHARMACEUTICAL COMPOSITION COMPRISING THE SYNTHETIC PEPTIDE” (Industry Foundation Of Chonnam National University, priority 2008, dated 2012).

No end group written: not given here.

The series relates to cells. In words: MTT assay for cytotoxicity. The class given is cell-based. To be noted: within a range of used concentrations, FIG. 3. In general terms: Tetrazolium dyes change colour on reduction, which living cells bring about.

In the case of “VEHDKEFFHPRYHHR [BFP 2, Val-Glu-His-Asp-Lys-Glu-Phe-Phe-His-Pro-Arg-Tyr-His-His-Arg]”, the cytotoxicity entry is listed as “not toxic to cells”.
